The supplement of paper PMC13380429

Legend:
Conditions in all cases: 72 h
Calu-3 [1] = assay: relative viability EC50 (midpoint between 100% and the lowest measured viability); higher = less toxic
HepG2 [2] = assay: drug sensitivity score (DSS) for viability; higher = more toxic; extreme values may be limits of the assay
U2OS [3] = assay: as above
Calu-3 [4] = assay: as above
Vero E6 [5] = assay: as above
Caco-2 [6] = assay: as above
HepG2 [7] = assay: cell viability relative to DMSO; higher = less toxic
U2OS [8] = assay: as above
Calu-3 [9] = assay: as above
Vero E6 [10] = assay: as above
Caco-2 [11] = assay: as above
HepG2 [12] = assay: relative viability EC50 (midpoint between 100% and the lowest measured viability); higher = less toxic
U2OS [13] = assay: as above
Caco-2 [14] = assay: as above
Vero E6 [15] = assay: as above

Structure (SMILES)	relative viability EC50 (Calu-3 [1])	drug sensitivity score (HepG2 [2])	drug sensitivity score (U2OS [3])	drug sensitivity score (Calu-3 [4])	drug sensitivity score (Vero E6 [5])	drug sensitivity score (Caco-2 [6])	cell viability (HepG2 [7]; 1 nM)	cell viability (HepG2 [7]; 10 nM)	cell viability (HepG2 [7]; 100 nM)	cell viability (HepG2 [7]; 1000 nM)	cell viability (HepG2 [7]; 10000 nM)	cell viability (U2OS [8]; 1 nM)	cell viability (U2OS [8]; 10 nM)	cell viability (U2OS [8]; 100 nM)	cell viability (U2OS [8]; 1000 nM)	cell viability (U2OS [8]; 10000 nM)	cell viability (Calu-3 [9]; 1 nM)	cell viability (Calu-3 [9]; 10 nM)	cell viability (Calu-3 [9]; 100 nM)	cell viability (Calu-3 [9]; 1000 nM)	cell viability (Calu-3 [9]; 10000 nM)	cell viability (Vero E6 [10]; 1 nM)	cell viability (Vero E6 [10]; 10 nM)	cell viability (Vero E6 [10]; 100 nM)	cell viability (Vero E6 [10]; 1000 nM)	cell viability (Vero E6 [10]; 10000 nM)	cell viability (Caco-2 [11]; 1 nM)	cell viability (Caco-2 [11]; 10 nM)	cell viability (Caco-2 [11]; 100 nM)	cell viability (Caco-2 [11]; 1000 nM)	cell viability (Caco-2 [11]; 10000 nM)	relative viability EC50 (HepG2 [12])	relative viability EC50 (U2OS [13])	relative viability EC50 (Caco-2 [14])	relative viability EC50 (Vero E6 [15])
CCn1c(-c2nonc2N)nc2cnc(Oc3cccc(NC(=O)c4ccc(OCCN5CCOCC5)cc4)c3)cc21	> 10 µM	5.1	4.4	0	5.9	1.8	96.6%	107%	114%	80.4%	52.4%	97.5%	98.6%	91.4%	78.5%	62.1%	97.9%	123%	144%	131%	125%	96.5%	99.3%	88.9%	72.2%	72.1%	94.9%	98%	94.9%	97.8%	67.7%				
Cc1nnc2ccc(-c3cccc(C(F)(F)F)c3)nn12	> 10 µM	0	0	0		0.2	107%	102%	107%	90.4%	108%	99.1%	98.8%	94.3%	99.4%	94.5%	99.5%	111%	95%	101%	91.2%						92.5%	97.3%	107%	97.6%	87.9%	> 10 µM	> 10 µM	> 10 µM	
N#CCC(=O)c1ccccc1	> 10 µM	0	0	0		0	94.9%	103%	101%	106%	96.2%	100%	99.9%	100%	98.3%	104%	103%	108%	96.3%	100%	94.7%						106%	105%	89.2%	98.2%	102%	> 10 µM	> 10 µM	> 10 µM	
NS(=O)(=O)NCc1csc2ccccc12	> 10 µM	0	0	0		0	109%	97%	111%	98.7%	112%	102%	106%	96.4%	104%	99.8%	90.7%	93.4%	94.8%	103%	95.4%						84.1%	95.7%	96.2%	94.3%	87.3%	> 10 µM	> 10 µM	> 10 µM	
O=C(NOCC(O)CO)c1cc(Br)c(F)c(F)c1Nc1ccc(I)cc1F (stereo not given)	0.102 µM	20.9	1.8	11.8	11.1	9.1	99.5%	97.9%	46.1%	25.7%	21.3%	103%	94.7%	92.7%	97.6%	67.8%	94.8%	81.8%	73.3%	62.1%	43.2%	93.8%	88.6%	76.7%	55.2%	51.3%	102%	92.3%	73.3%	69.5%	68.7%	0.0645 µM			
CC(=O)N[C@H]1[C@H]([C@H](O)[C@H](O)CO)OC(O)(C(=O)O)C[C@@H]1O (mixture of isomers) [aceneuramic-acid]	> 10 µM	2.5		0	0	0	94.6%	90.1%	99.9%	67.9%	86.1%						113%	99.6%	99.2%	97.1%	90.4%	102%	97.4%	101%	93.7%	98%	106%	99%	85.8%	99.3%	93.6%			> 10 µM	> 10 µM
CCCCCCCCCCCCCCCCO [1-hexadecanol]	> 10 µM		0	0	0	0						97.8%	100%	97%	97.3%	92.7%	94%	95.5%	102%	95.5%	97.3%	99.7%	97.3%	96%	95.9%	102%	107%	97.4%	87.3%	96.6%	95.1%		> 10 µM	> 10 µM	> 10 µM
Cc1[nH]c2ccc(O)cc2c1CCN [2-methyl-5-hydroxytryptamine]	> 10 µM		0	0	0	0						101%	101%	97.3%	106%	101%	109%	109%	102%	101%	99.3%	95%	96.5%	98.4%	96.6%	94.9%	104%	105%	98.3%	102%	102%		> 10 µM	> 10 µM	> 10 µM
